The test system of test [1] is C57BL/6J mice (mild hyperglycemic). The test is described as follows: In vivo glucose reduction, acute single dose 120-min time-course, i.p. route. Set-up: species or system mouse; unit not given here. Particulars: male C57BL/6J mice.
Test [2] has the same test system. Briefly: In vivo glucose reduction, acute single dose 120-min time-course, oral route. The conditions noted are these: male C57BL/6J mice, 2 μM/kg oral. On the set-up: species or system mouse; unit not given here. The procedure: Acute single dose 120-min time-course experiments were carried out in male C57BL/6J or db/db mice, age 8-12 weeks, bred in-house. Animals were housed in groups of 6 animals per cage, for a week, in order to habituate them to vivarium conditions (25±4° C., 60-65% relative humidity, 12:12 h light:dark cycle, with lights on at 7.30 am). All the animal experiments were carried out according to the internationally valid guidelines following approval by the ‘Zydus Research Center animal ethical committee’.
Two days prior to the study, the animals were randomised and divided into 5 groups (n=6), based upon their fed glucose levels. On the day of experiment, food was withdrawn from all the cages, water was given ad-libitum and were kept for overnight fasting. Vehicle (normal saline)/test/standard compounds were administered intraperitoneally (i.p.) or orally, on a body weight basis. Soon after the 0 min. blood collection from each animal, the subsequent blood collections were done at 30, 60 and 120 or up to 240 min., via retro-orbital route, under light ether anesthesia (Chen, D., et al., Diabetes Obesity Metabolism, 2005, 7, 307. Kim, J. G. et al., Diabetes, 2003, 52, 751).
Blood samples were centrifuged and the separated serum was immediately subjected for the glucose estimation. Serum for insulin estimation was stored at −70° C. until used for the insulin estimation. The glucose estimation was carried out with DPEC-GOD/POD method (Ranbaxy Fine Chemicals Limited, Diagnostic division, India), using Spectramax-190, in 96-microwell plate reader (Molecular devices Corporation, Sunnyvale, Calif.). […] The AUC and BCAUC obtained from graphs were analyzed for one way ANOVA, followed by Dunnett's post test, using Graph Pad prism software. Furthermore, the insulin estimation was carried out using rat/mouse insulin ELISA kit (Linco research, Missouri USA). Changes in the blood glucose levels, at 0, 30, 60 and 120 min, with selected peptidomimetics are shown in Table 7 (via ip route of administration) and Table 8 (via oral route of administration) respectively.

Data on 4 compounds can be found in patent US8883963B2 (Cadila Healthcare Limited, priority 2007, dated 2014).

Non-standard residues stand in square brackets, D forms with d. Residues, ends and D or L forms follow the SMILES beside them. ξ: configuration not given here. ξBip(2'-Et-4'-OMe) = CCc1cc(OC)ccc1-c1ccc(CC(N)C(=O)O)cc1; ξNva(5-(3,5-Me2-Ph)) = Cc1cc(C)cc(CCCC(N)C(=O)O)c1; ξNva(5-(3-Cl-Ph)) = NC(CCCc1cccc(Cl)c1)C(=O)O; Aib = CC(C)(N)C(=O)O

As to `CCc1cc(OC)ccc1-c1ccc(CC(NC(=O)[C@H](CC(=O)O)NC(=O)[C@H](CO)NC(=O)[C@@H](NC(=O)C(C)(Cc2ccccc2F)NC(=O)[C@@H](NC(=O)CNC(=O)C(CCC#N)NC(=O)C(C)(C)NC(=O)[C@H](Cc2c[nH]cn2)NC(C)=O)[C@@H](C)O)[C@@H](C)O)C(=O)NC(CCCc2ccccc2F)C(N)=O)cc1` (single isomer, unassigned) [Seq. ID. 207], the blood glucose levels in test [1] (50 nM/kg i.p., 0 min) stood at 184 ± 5.0; in test [1] (50 nM/kg i.p., 30 min), 122 ± 3.8; in test [1] (50 nM/kg i.p., 60 min), 128 ± 2.1; in test [1] (50 nM/kg i.p., 120 min), 149 ± 2.3; in test [2] (0 min), 183 ± 2.4; in test [2] (30 min), 116 ± 3.1. Besides, the blood glucose levels in test [2] (60 min) is 112 ± 4.8; in test [2] (120 min), 110 ± 2.5.
`CCc1cc(OC)ccc1-c1ccc(CC(NC(=O)[C@H](CC(=O)O)NC(=O)[C@H](CO)NC(=O)[C@@H](NC(=O)C(C)(Cc2ccccc2F)NC(=O)[C@@H](NC(=O)CNC(=O)[C@H](CC(C(F)(F)F)C(F)(F)F)NC(=O)C(C)(C)NC(=O)[C@@H](N)Cc2c[nH]cn2)[C@@H](C)O)[C@H](C)O)C(=O)NC(CCCc2ccccc2)C(N)=O)cc1` (single isomer, unassigned) [Seq. ID. 225]: the blood glucose levels was 184 ± 5.0 in test [1] (10 nM/kg i.p., 0 min); 122 ± 3.8 in test [1] (10 nM/kg i.p., 30 min); 128 ± 2.1 in test [1] (10 nM/kg i.p., 60 min); 149 ± 2.3 in test [1] (10 nM/kg i.p., 120 min); 183 ± 2.3 in test [2] (0 min); 119 ± 3.0 in test [2] (30 min). Besides, the blood glucose levels was found to be 112 ± 4.3 in test [2] (60 min) and 109 ± 2.6 in test [2] (120 min).
Consider `CCc1cc(OC)ccc1-c1ccc(CC(NC(=O)[C@H](CC(=O)O)NC(=O)[C@H](CO)NC(=O)[C@@H](NC(=O)[C@H](Cc2ccccc2)NC(=O)[C@@H](NC(=O)CNC(=O)[C@H](CCC(N)=O)NC(=O)[C@H](C)NC(=O)[C@@H](N)Cc2c[nH]cn2)[C@@H](C)O)[C@@H](C)O)C(=O)NC(CCCc2cccc(Cl)c2)C(N)=O)cc1` (some centres unmarked) [Seq. ID. 15] (H-HAQGTFTSD[ξBip(2'-Et-4'-OMe)][ξNva(5-(3-Cl-Ph))]-NH2), for which the blood glucose levels in test [1] (30 nM/kg i.p., 0 min) turned out to be 180 ± 3.2; in test [1] (30 nM/kg i.p., 30 min), 119 ± 3.2; in test [1] (30 nM/kg i.p., 60 min) it was 117 ± 3.1; in test [1] (30 nM/kg i.p., 120 min) it was 118 ± 1.8; in test [2] (0 min) it was 183 ± 2.4; in test [2] (30 min), 116 ± 3.1. The blood glucose levels stood at 112 ± 4.8 in test [2] (60 min) and 110 ± 2.5 in test [2] (120 min).
As to `CCc1cc(OC)ccc1-c1ccc(CC(NC(=O)[C@H](CC(=O)O)NC(=O)[C@H](CO)NC(=O)[C@@H](NC(=O)[C@H](Cc2ccccc2)NC(=O)[C@@H](NC(=O)CNC(=O)[C@H](CCC(N)=O)NC(=O)C(C)(C)NC(=O)[C@@H](N)Cc2c[nH]cn2)[C@@H](C)O)[C@@H](C)O)C(=O)NC(CCCc2cc(C)cc(C)c2)C(N)=O)cc1` (some centres unmarked) [Seq. ID. 18] (H-H[Aib]QGTFTSD[ξBip(2'-Et-4'-OMe)][ξNva(5-(3,5-Me2-Ph))]-NH2), the blood glucose levels in test [1] (30 nM/kg i.p., 0 min) amounted to 183 ± 3.6; in test [1] (30 nM/kg i.p., 30 min), 118 ± 3.3; in test [1] (30 nM/kg i.p., 60 min) it was 116 ± 3.2; in test [1] (30 nM/kg i.p., 120 min), 117 ± 1.9; in test [2] (0 min), 185 ± 2.3; in test [2] (30 min) it was 115 ± 3.8. For the same compound, the blood glucose levels in test [2] (60 min) came to 113 ± 4.9; in test [2] (120 min), 109 ± 2.2.
